#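 Five concentrations, 48 hours, 96-well plates. At the TGI there is no net growth.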
# Experiments:
# Assay in all cases: NCI tumour cell line growth inhibition, 48 h
# [1] = system: A498 renal
# [2] = system: MDA-MB-231 breast
# [3] = system: LOX IMVI melanoma
# [4] = system: K-562 leukemia
# [5] = system: MDA-N
# [6] = system: MOLT-4 leukemia
# [7] = system: OVCAR-8 ovarian
# [8] = system: SR leukemia
# [9] = system: HS 578T breast
# [10] = system: HL-60(TB) leukemia
# [11] = system: OVCAR-3 ovarian
# [12] = system: RPMI-8226 leukemia
# [13] = system: TK-10 renal
# [14] = system: NCI-H522 lung
# [15] = system: MCF7 breast
# [16] = system: OVCAR-5 ovarian
# [17] = system: M14 melanoma
# [18] = system: DU-145 prostate
# [19] = system: UACC-257 melanoma
# [20] = system: PC-3 prostate
# [21] = system: COLO 205 colon
# [22] = system: U251 CNS
# [23] = system: SF-268 CNS
# [24] = system: CAKI-1 renal
# [25] = system: SK-OV-3 ovarian
# [26] = system: EKVX NSCLC
# [27] = system: HT29 colon
# [28] = system: IGROV1 ovarian
# [29] = system: SNB-19 CNS
# [30] = system: SF-295 CNS
# [31] = system: HCC-2998 colon
# [32] = system: 786-0 renal
# [33] = system: SNB-75 CNS
# [34] = system: NCI/ADR-RES ovarian
# [35] = system: SN12C renal
# [36] = system: SK-MEL-5 melanoma
# [37] = system: MDA-MB-435
# [38] = system: SF-539 CNS
# [39] = system: SW-620 colon
# [40] = system: NCI-H226 lung
# [41] = system: HOP-62 NSCLC
# [42] = system: A549 NSCLC
# [43] = system: UACC-62 melanoma
# [44] = system: SK-MEL-28 melanoma
# [45] = system: RXF 393 renal
# [46] = system: HCT-116 colon
# [47] = system: NCI-H460 lung
# [48] = system: SK-MEL-2 melanoma
# [49] = system: ACHN renal
# [50] = system: KM12 colon
# [51] = system: T-47D breast
# [52] = system: MALME-3M melanoma
# [53] = system: NCI-H23 lung
# [54] = system: HCT-15 colon
# [55] = system: CCRF-CEM leukemia
# [56] = system: OVCAR-4 ovarian
# [57] = system: UO-31 renal
# [58] = system: HOP-92 NSCLC
# [59] = system: BT-549 breast
structure (smiles),measurement,setting,value
FC(F)(F)C1(C(F)(F)F)C2CCC3(CC(F)(F)C(F)(F)S3)C1C2 (centres undefined),TGI,[1],> 100 µM
same,TGI,[2],> 100 µM
same,TGI,[3],47.4 µM
same,TGI,[4],> 100 µM
same,TGI,[5],> 100 µM
same,TGI,[6],46.4 µM
same,TGI,[7],> 100 µM
same,TGI,[8],44.1 µM
same,TGI,[9],> 100 µM
same,TGI,[10],51.8 µM
same,TGI,[11],35.9 µM
same,TGI,[12],58.8 µM
same,TGI,[13],> 100 µM
same,TGI,[14],> 100 µM
same,TGI,[15],84.3 µM
same,TGI,[16],> 100 µM
same,TGI,[17],> 100 µM
same,TGI,[18],> 100 µM
same,TGI,[19],74.3 µM
same,TGI,[20],> 100 µM
same,TGI,[21],76.3 µM
same,TGI,[22],> 100 µM
same,TGI,[23],> 100 µM
same,TGI,[24],> 100 µM
same,TGI,[25],> 100 µM
same,TGI,[26],96.6 µM
same,TGI,[27],> 100 µM
same,TGI,[28],> 100 µM
same,TGI,[29],> 100 µM
same,TGI,[30],> 100 µM
same,TGI,[31],> 100 µM
same,TGI,[32],> 100 µM
same,TGI,[33],> 100 µM
same,TGI,[34],> 100 µM
same,TGI,[35],> 100 µM
same,TGI,[36],> 100 µM
same,TGI,[37],> 100 µM
same,TGI,[38],> 100 µM
same,TGI,[39],> 100 µM
same,TGI,[40],> 100 µM
same,TGI,[41],> 100 µM
same,TGI,[42],> 100 µM
same,TGI,[43],> 100 µM
same,TGI,[44],> 100 µM
same,TGI,[45],84.3 µM
same,TGI,[46],42.5 µM
same,TGI,[47],> 100 µM
same,TGI,[48],49.1 µM
same,TGI,[49],98.5 µM
same,TGI,[50],> 100 µM
same,TGI,[51],> 100 µM
same,TGI,[52],95.1 µM
same,TGI,[53],> 100 µM
same,TGI,[54],> 100 µM
same,TGI,[55],60.9 µM
same,TGI,[56],> 100 µM
same,TGI,[57],68.3 µM
Cc1cc(Br)cc(C)c1NC(=O)C(=O)C1C(=O)C(CC2C(=O)c3ccccc3C2=O)C(=O)CC1(C)C (centres undefined),TGI,[2],> 100 µM
same,TGI,[3],> 100 µM
same,TGI,[5],> 100 µM
same,TGI,[6],74.5 µM
same,TGI,[7],> 100 µM
same,TGI,[9],> 100 µM
same,TGI,[10],> 100 µM
same,TGI,[11],> 100 µM
same,TGI,[13],> 100 µM
same,TGI,[14],> 100 µM
same,TGI,[15],> 100 µM
same,TGI,[16],> 100 µM
same,TGI,[17],> 100 µM
same,TGI,[18],> 100 µM
same,TGI,[19],> 100 µM
same,TGI,[20],> 100 µM
same,TGI,[21],> 100 µM
same,TGI,[22],> 100 µM
same,TGI,[23],> 100 µM
same,TGI,[58],> 100 µM
same,TGI,[24],> 100 µM
same,TGI,[25],> 100 µM
same,TGI,[26],> 100 µM
same,TGI,[27],> 100 µM
same,TGI,[28],> 100 µM
same,TGI,[29],> 100 µM
same,TGI,[30],> 100 µM
same,TGI,[31],> 100 µM
same,TGI,[32],> 100 µM
same,TGI,[33],> 100 µM
same,TGI,[59],> 100 µM
same,TGI,[34],> 100 µM
same,TGI,[35],> 100 µM
same,TGI,[36],> 100 µM
same,TGI,[37],> 100 µM
same,TGI,[38],> 100 µM
same,TGI,[39],> 100 µM
same,TGI,[40],> 100 µM
same,TGI,[41],> 100 µM
same,TGI,[42],> 100 µM
same,TGI,[43],> 100 µM
same,TGI,[44],> 100 µM
same,TGI,[45],> 100 µM
same,TGI,[46],> 100 µM
same,TGI,[47],> 100 µM
same,TGI,[48],> 100 µM
same,TGI,[49],> 100 µM
same,TGI,[50],> 100 µM
same,TGI,[53],> 100 µM
same,TGI,[54],> 100 µM
same,TGI,[55],95.7 µM
same,TGI,[56],> 100 µM
same,TGI,[57],92.7 µM
O=C(Nc1ccc(F)cc1)c1cc2ccc(O)cc2oc1=Nc1ccccc1F,TGI,[1],> 100 µM
same,TGI,[3],49.6 µM
same,TGI,[4],> 100 µM
same,TGI,[5],> 100 µM
same,TGI,[6],> 100 µM
same,TGI,[7],36.7 µM
same,TGI,[8],> 100 µM
same,TGI,[9],> 100 µM
same,TGI,[10],69.5 µM
same,TGI,[11],> 100 µM
same,TGI,[12],> 100 µM
same,TGI,[14],84 µM
same,TGI,[15],> 100 µM
same,TGI,[16],> 100 µM
same,TGI,[18],> 100 µM
same,TGI,[19],> 100 µM
same,TGI,[20],> 100 µM
same,TGI,[21],> 100 µM
same,TGI,[22],97.5 µM
same,TGI,[23],> 100 µM
same,TGI,[24],> 100 µM
same,TGI,[25],67.1 µM
same,TGI,[26],40.8 µM
same,TGI,[27],> 100 µM
same,TGI,[28],36.1 µM
same,TGI,[30],> 100 µM
same,TGI,[31],> 100 µM
same,TGI,[32],> 100 µM
same,TGI,[59],43.5 µM
same,TGI,[34],51.8 µM
same,TGI,[35],> 100 µM
same,TGI,[36],35.2 µM
same,TGI,[37],> 100 µM
same,TGI,[38],> 100 µM
same,TGI,[39],> 100 µM
same,TGI,[41],> 100 µM
same,TGI,[43],> 100 µM
same,TGI,[44],> 100 µM
same,TGI,[46],> 100 µM
same,TGI,[47],> 100 µM
same,TGI,[48],> 100 µM
same,TGI,[49],> 100 µM
same,TGI,[50],> 100 µM
same,TGI,[51],> 100 µM
same,TGI,[52],> 100 µM
same,TGI,[53],13.6 µM
same,TGI,[54],59 µM
same,TGI,[55],> 100 µM
same,TGI,[56],> 100 µM
